From patent US20090179638A1, “ASSAY FOR IDENTIFYING INHIBITORS OF NEURONAL APOPTOTIC PATHWAYS” (AEGERA THERAPEUTICS INC., priority 2006, published 2009)
Entries after “also recorded” stand apart in the source; their conditions may differ. One block for each compound: values may come before it.

Tests used:
[1] = tested on: HSP90; assay: ATP-Sepharose interaction assay; type: binding; conditions: purified HSP90 pre-incubated with substance
Method: Bound HSP90 was eluted HSP90 content was determined by immunoblotting.
ATP-Sepharose Interaction Assays. These were performed essentially as described in (Grenert et al., 1997). […] 25 ul of ATP-sepharose beads were added and the reactions were incubated for 30 min at 30° C. After thorough washing with ice-cold incubation buffer, bound proteins were eluted in sample buffer and HSP90 content was determined by immunoblotting.

[2] = tested on: PC12^rtTA cells; assay: p75NTR- or NRAGE-induced cell death of PC12rtTA cells (LDH release assay); type: cell-based; conditions: increasing concentrations, 40 hours, LDH
Method: FIGS. 2A and 2B are graphs showing that compound 1 inhibits p75NTR or NRAGE induced JNK activation and cell death. Compound 1 inhibits NRAGE (A) or p75NTR (B) mediated cell death. PC12^rtTA cells were infected with recombinant adenoviruses expressing full-length NRAGE (AdNRG) at 5 MOI, full length p75NTR (Adp75) at 50 or 100 MOI, or the control protein β-galactosidase (AdLacZ) (at 5 MOI in (A) and 50 MOI in (B)). At time of infection, the cells were treated with an increasing concentration of compound 1, or with vehicle alone, as indicated. After 40 hours, cells were assayed for death using the lactate dehydrogenase (LDH) assay; untreated cells (Un) and cells treated with 1% Triton X-100 (Tx) were used to delineate the output range of the assay. Results are normalized relative to those obtained with 1% Triton (Tx), and represent the mean±standard deviation of a representative experiment performed in triplicate (*=P<0.005 relative to no compound 1).
PC12^rtTA were infected with adenoviruses encoding p75NTR (Adp75), NRAGE (AdNRG), or as a control, LacZ (AdLacZ), and were concurrently exposed to increasing concentrations of compound 1 for a period of 40 hours. Cell death was assessed using an LDH release assay. […] Treatment with 40 μM compound 1 reduced p75NTR- or NRAGE-induced cell death by greater than 90%.
(§1) Cell culture, infection, transfection and immunoblotting. Sympathetic neurons were maintained and deprived of NGF as previously described (Bamji et al., 1998; Ma et al., 1992). PC12^rtTA cells were maintained and infected as previously described (Majdan et al., 1997; Salehi et al., 2002); for NRAGE, […] doxycycline was added to all plates at time of infection. Wildtype and HSF1 nullizygous immortalized mouse embryonic fibroblasts (MEFs) were maintained in DMEM containing 10% fetal calf serum, 1 μM β-mercaptoethanol, 1% non-essential amino acids, 1% L-glutamine, 1% antimycotic solution and 1% sodium pyruvate (all from GibcoBRL). Sympathetic neuron survival was assessed using the MTS assay according to the manufacturer's instructions (Promega). Analysis of PC12 cell death was determined using a lactate dehydrogenase (LDH) assay (Roche) as per the manufacturer's instructions. Transfections using plasmids or RNAi were performed using Lipofectamine 2000. Immunoblotting was performed as previously described (Majdan et al., 1997; Salehi et al., 2002).

[3] = tested on: SCG neurons; assay: NGF-withdrawal induced cell death of SCG neurons (MTS assay); type: cell-based, rat; conditions: SCG neurons withdrawn from NGF, 48 hours
Method: FIG. 1 is a graph showing that compound 1 inhibits NGF-withdrawal induced cell death. Cultures of rat SCG neurons (see Materials and Methods) initially maintained in 10 ng/ml of NGF were withdrawn from NGF and maintained in media containing compound 1 at the concentrations indicated for 48 hours. Cellular viability was assayed using an MTS assay. (*=P<0.01 relative to no compound 1). Experiments were performed three times with identical results.
Survival of neonatal primary sympathetic neurons is dependent on trophic support provided by Neuronal Growth Factor (NGF) (reviewed in (Young et al., 2004)).
as §1

[4] = tested on: HSP70; assay: HSP protein expression in PC12 / PC12rtTA cells (immunoblot); type: cell-based; conditions: PC12rtTA cells infected with AdNRG, Adp75 or AdLacZ, 30 hours (FIG. 6A)
Method: FIGS. 4A-4C are photographs of Western blots which illustrate that compound 1 treatment of PC12 cells induces expression of HSP70. A: PC12 cells were infected with 5 MOI of AdNRG (NRG) or AdLacZ (LacZ) as indicated. Cells were left untreated (0) or treated with 40 μM compound 1 at time of infection (30), one hour before lysis (1), or at both times (30+1). Cells were lysed thirty hours after infection, normalized for protein content, and analyzed for levels of phospho-Ser^63 c-Jun and total c-Jun, total JNK, IkBα, and NRAGE by immunoblotting. Lysates from untreated cells are indicated by ‘−’. B: PC12 cells were treated with the indicated concentrations of compound 1 for 18 hours and then lysed, normalized for protein content, and analyzed for levels of HSP70 by immunoblotting. Lysates from untreated cells are indicated by ‘−’. C: RNA isolated from PC12^rtTA cells treated with increasing concentrations of compound 1 for 18 hours was analyzed by rtPCR using primers specific to HSP70, HSP25, HSP90 or actin, as indicated. Experiments in Panel A and B were performed three times and that in Panel C was performed twice, with essentially identical results. D: PC12^rtTA cells were infected with AdNRG at 5 MOI, Adp75 at 50 MOI, or the control virus AdLacZ at 50 MOI. At time of infection, the cells were treated with increasing concentrations of compound 1, or with vehicle alone, as indicated. Thirty hours after infection, cells were lysed, normalized for protein content, and analyzed for levels of c-Jun phosphorylation, HSP70, HSP25, HSP40, NRAGE, p75NTR, JNK-1 and IkBα, as indicated.
FIGS. 6A, 6B and 6C are graphs and photographs of Western blots which illustrate that compound 1 analogues inhibit JNK activation and induce expression of HSP70. A: PC12^rtTA cells were infected with 5 MOI of AdNRG, 50 MOI of Adp75 or 50 MOI of the control virus AdLacZ. At time of infection, the cells were treated with an increasing concentrations of compound 1, or its analogues, compound 2, compound 3, compound 4, or with vehicle alone, as indicated. Thirty hours after infection, cells were lysed, normalized for protein levels, and analyzed for levels of HSP70, HSP25 and JNK-1, as indicated. B: PC12^rtTA cells were treated as above and after 40 hours infection were assayed for death using the lactate dehydrogenase (LDH) assay. Results are normalized relative to those obtained with 1% Triton, and represent the mean±standard deviation of a representative experiment performed in triplicate (*=P<0.025 relative to ‘0’ for each compound concentration). C: PC12^rtTA cells were infected with 50 MOI of LacZ or 5 MOI of AdNRG50 and at the time of infection, were treated with 40 μM compound 1, or its analogues, compound 2, compound 3, compound 4, or with vehicle alone, as indicated. Thirty hours after infection, cells were lysed, normalized for protein levels, and were analyzed for phosphorylated c-Jun, total c-Jun, NRAGE and JNK-1, as indicated. Experiments in Panel A and C were performed twice and that in B were performed twice, with essentially identical results.
To address this, SCG neurons were treated with compound 1 for 18 hours then lysed and assessed for HSP70 levels by immunoblot. Uninfected PC12rtTA cells were treated in a similar manner. […] To test if the accumulation of HSP70 induced by compound 1 reflected increased steady state levels of its mRNA, RNA was isolated from PC12 cells treated with increasing concentrations of compound 1 for 18 hours and the cell lysates subjected to semi-quantitative rtPCR. […] HSP protein levels were also assessed in PC12rtTA cells infected with AdLacZ, Adp75, or AdNRG, and at the same time, exposed to compound 1.

[5] = tested on: HSP90 protein; assay: STD 1H NMR spectroscopy binding to HSP90; conditions: compound to protein ratio approximately 100:1, 20 mM sodium phosphate buffer pH 6.7
Method: (§2) FIG. 9 is a STD 1H NMR Spectrum of Compound 1 and 20 with HSP90 protein. STD NMR experiments were performed at 19° C. on a Varian INNOVA 500 MHz spectrometer equipped with a triple resonance HCN cold probe. A 1D saturation transfer difference pulse sequence with internal subtraction via phase cycling was employed. Residual HDO signal was removed using a W5 WATERGATE pulse sequence, with a […] interpulse delay. On resonance irradiation of the protein was performed at −0.5 ppm, with off-resonance irradiation at 34 ppm. The irradiation power was (g/2p)B1=93 Hz applied through a train of 50 ms eburp1 pulses with a 1 ms delay between the pulses. The total presaturation time was 5.1 s. The relaxation delay was set to 0.1 s. A 30 ms spin-lock pulse with a strength of (g/2p)B1=4600 Hz was used to eliminate background protein signals. The total number of scans was between 1536, with a sweep width of 16 ppm. Spectra were multiplied by a 1 Hz exponential line-broadening function prior to Fourier transform. Compounds 1 (85 uM) and 20 (85 uM) and HSP90 protein (0.85 uM) in 20 mM sodium phosphate buffer (pH 6.7) was used. A) STD 1H NMR spectrum, B) preset reference, and C) STD reference-no saturation/difference.
as §2, with “STD” for “FIG. 9 is a STD 1H NMR Spectrum of Compound 1 and 20 with HSP90 protein. STD”, “employed (Mayer and Meyer, JACS, 2001, 123, 6108-6117).” for “employed.”, “delay (Liu et. al, J. Magn. Res., 1998, 132, 125).” for “delay.”, “1536-2048,” for “1536,”, “transform.” for “transform. Compounds 1 (85 uM) and 20 (85 uM) and HSP90 protein (0.85 uM) in 20 mM sodium phosphate buffer (pH 6.7) was used. A) STD 1H NMR spectrum, B) preset reference, and C) STD reference-no saturation/difference.”
The compound to protein ratio was fixed at approximately 100:1 in 20 mM sodium phosphate buffer (pH 6.7). Compound 20 was used as a reference compound to compare binding affinities of various compounds to HSP90 by comparing the relative intensity of NOE effects in the spectra of compounds 1 and 20 (see FIG. 9), compounds 2 and 20, compounds 5 and 20, compounds 13 and 20, and compounds 15 and 20 (near equamolar quantities of each) in the presence of HSP90 protein. Using the NOE signals for the imidazole proton, and comparing peak heights, the relative kd of the compound pairs were compared (see Meyer and Peters, T. Angew. Chem. Int. Ed. 2003, 42, 864). The kds of the compound pairs ranged from 1:1 to 8:1. These differences in binding affinities correlated to the potency of each respective compound's ability to rescue SCG neurons from NGF withdrawal as previously reported.

[6] = tested on: HSP90; assay: Photoaffinity-biotin labelling of PC12 protein extracts; type: binding; conditions: 2 uM, 3 hours, UV 30 minutes, approximately 90 kDal band
Method: HSP90 was also identified using the photoaffinity-biotinylated probe, compound 7. PC12 protein extracts were separated by SDS page. SDS was removed by incubation in 20% isopropanol and proteins were renatured by incubation in DTT and guanidine HCl. The gel was then incubated for 3 hours with 2 uM compound 7 and then photoactivated for 30 minutes using a UV crosslinker. Proteins were then transferred to nitrocellulose and biotin was detected with HRP-conjugated strepavidin.

[7] = full body radiography
Method: The induction of HSP70 was investigated in vivo by the treatment of rats with a single dose of Na-19 (SC, 30 mg/kg).

SMILES: Nc1ncnc2c1ncn2[C@@H]1O[C@H](COP(=O)(O)OP(=O)(O)OP(=O)(O)O)[C@@H](O)[C@H]1O [ATP, reference compound]
- binding of HSP90 to gATP-Sepharose [1]: strongly inhibited

SMILES: NS(=O)(=O)c1nn2cc(-c3ccc(OCC(=O)O)cc3)nc2s1 [Compound 3]
- protection from Adp75- or AdNRG-induced cell death [2]: do not protect
- protection from NGF-withdrawal induced cell death [3]: do not protect
- HSP70 production [4]: failed to induce HSP70

SMILES: NS(=O)(=O)c1nn2cc(-c3ccc(NC(=O)c4ccccc4)cc3)nc2s1 [Compound 4]
- protection from Adp75- or AdNRG-induced cell death [2]: do not protect
- protection from NGF-withdrawal induced cell death [3]: do not protect
- HSP70 production [4]: failed to induce HSP70

SMILES: [N-]=[N+]=Nc1c(F)c(F)c(-c2cn3nc(S(=O)(=O)CCNC(=O)CCCCC4SC[C@H]5NC(=O)N[C@@H]45)sc3n2)c(F)c1F (some centres unmarked) [Compound 7]
- photoaffinity labelled band [6]: consistent with binding to HSP90

SMILES: [NH-]S(=O)(=O)c1nn2[14cH]c(-c3ccc(-c4cccc(C(F)(F)F)c4)cc3)nc2s1.[Na+] [[^14C]—Na-19, [5-^14C]-6-(3′-(trifluoromethyl)biphenyl-4-yl)imidazo[2,1-b]-1,3,4-thiadiazole-2-sulfonamide Mono Sodium Salt]
- radioactivity in sciatic nerve [7]: significant, time dependent, radioactivity in sciatic nerve

Second part, the compound after the results:

- binding to HSP90 protein by STD 1H NMR [5]: directly bind
SMILES: NS(=O)(=O)c1nn2cc(-c3ccc(O)cc3)nc2s1 [Compound 5]

- binding to HSP90 protein by STD 1H NMR [5]: directly bind
SMILES: NS(=O)(=O)c1nn2cc(-c3ccc4c(c3)OCCCO4)nc2s1 [Compound 12]

- binding to HSP90 protein by STD 1H NMR [5]: directly bind
SMILES: COCCOCCOc1ccc(-c2cn3nc(S(N)(=O)=O)sc3n2)cc1 [Compound 13]

- binding to HSP90 protein by STD 1H NMR [5]: directly bind
SMILES: CC(C)(C)c1ccc(-c2cn3nc(S(N)(=O)=O)sc3n2)cc1 [Compound 15]

- binding to HSP90 protein by STD 1H NMR [5]: Positive; also recorded: directly bind
SMILES: CC(=O)N1CCN(CC[S+]([O-])c2nn3cc(-c4ccccc4)nc3s2)CC1 (centres unmarked) [Compound 20]
